Experimental data from the supplement of paper PMC12137928.
Where a name gives a salt, the structure may show the parent alone.

System: HCT116
Details: 72 h
Summary of the method: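 For IC50 and maximal efficacy, four-parameter Hill fits were used. Input values were CellTiter-Glo luminescence from HCT116 cells seeded at 250 per well in 1536-well plates, normalized to vehicle (0%) and positive control (-100%). Pattern correction followed normalization.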

Row | IC50 cell viability (ICRF193 0 nM) | IC50 cell viability (ICRF193 200 nM) | SMILES
1 | > 45.8 µM | > 45.8 µM | COC(=O)Nc1nc2cc(Sc3ccccc3)ccc2[nH]1 [Fenbendazole]
2 | > 45.8 µM | > 45.8 µM | O=C(O)CCC(=O)c1ccc(-c2ccccc2)cc1 [Fenbufen]
3 | > 45.8 µM | > 45.8 µM | CCC(C(=O)OCCN1CCOC(c2ccccc2)C1C)c1ccccc1 (centres undefined) [Fenbutrazate]
4 | > 45.8 µM | > 45.8 µM | CCCCC(O)c1ccccc1 (centres undefined) [Fenipentol]
5 | > 45.8 µM | > 45.8 µM | CC(C)OC(=O)C(C)(C)Oc1ccc(C(=O)c2ccc(Cl)cc2)cc1 [Fenofibrate]
6 | > 45.8 µM | > 45.8 µM | Oc1ccc(C2CNCCc3c2cc(O)c(O)c3Cl)cc1 (centres undefined) [Fenoldopam]
7 | > 45.8 µM | > 45.8 µM | CC(C(=O)O)c1cccc(Oc2ccccc2)c1 (centres undefined) [Fenoprofen calcium salt dihydrate]
8 | > 45.8 µM | > 45.8 µM | O=C(O)Cc1sc(-c2ccccc2)nc1-c1ccc(Cl)cc1 [Fentiazac]
9 | > 45.8 µM | > 45.8 µM | CC(C)=CCC1C(=O)N(c2ccccc2)N(c2ccccc2)C1=O [Feprazone]
10 | > 45.8 µM | > 45.8 µM | CC(C)(C(=O)O)c1ccc(C(O)CCCN2CCC(C(O)(c3ccccc3)c3ccccc3)CC2)cc1 (centres undefined) [Fexofenadine hydrochloride]
11 | > 45.8 µM | > 45.8 µM | Cc1ccc(/C=N/n2c(-c3ccccc3)csc2=S)cc1 [Fezatione]
12 | > 45.8 µM | > 45.8 µM | NC(=O)[C@@H]1C[C@]2(NC(=O)NC2=O)c2cc(F)ccc2O1 [Fidarestat]
13 | > 45.8 µM | > 45.8 µM | CC(C)(C)NC(=O)[C@H]1CC[C@H]2[C@@H]3CC[C@H]4NC(=O)C=C[C@]4(C)[C@H]3CC[C@]12C [Finasteride]
14 | > 45.8 µM | > 45.8 µM | Cc1cc2nc3c(=O)[nH]c(=O)nc-3n(C[C@H](O)[C@H](O)[C@H](O)COP(=O)(O)OP(=O)(O)OC[C@H]3O[C@@H](n4cnc5c(N)ncnc54)[C@H](O)[C@@H]3O)c2cc1C [Flavin adenine dinucleotide disodium salt hydrate]
15 | > 45.8 µM | > 45.8 µM | Cc1c(-c2ccccc2)oc2c(C(=O)OCCN3CCCCC3)cccc2c1=O [Flavoxate hydrochloride]
16 | > 45.8 µM | > 45.8 µM | O=C(NCC1CCCCN1)c1cc(OCC(F)(F)F)ccc1OCC(F)(F)F (centres undefined) [Flecainide]
17 | > 45.8 µM | > 45.8 µM | CN1CCN(c2c(F)cc3c(=O)c(C(=O)O)cn(CCF)c3c2F)CC1 [Fleroxacin]
18 | > 45.8 µM | > 45.8 µM | O=C(OCC(O)CO)c1ccccc1Nc1ccnc2c(C(F)(F)F)cccc12 (centres undefined) [Floctafenine]
19 | > 45.8 µM | > 45.8 µM | CO[C@@]1(NC(=O)CSC(F)F)C(=O)N2C(C(=O)O)=C(CSc3nnnn3CCO)CO[C@@H]21 [Flomoxef]

Row | IC50 cell viability (ICRF193 0 nM) | IC50 cell viability (ICRF193 200 nM) | SMILES
20 | > 45.8 µM | > 45.8 µM | CCC(=O)c1c(O)cc(O)cc1O [Flopropione]
21 | > 45.8 µM | > 45.8 µM | CS(=O)(=O)c1ccc([C@@H](O)[C@@H](CF)NC(=O)C(Cl)Cl)cc1 [Florfenicol]
22 | > 45.8 µM | > 45.8 µM | Cc1onc(-c2c(F)cccc2Cl)c1C(=O)N[C@@H]1C(=O)N2[C@@H]1SC(C)(C)[C@@H]2C(=O)O [Flucloxacillin sodium]
23 | > 45.8 µM | > 45.8 µM | OC(Cn1cncn1)(Cn1cncn1)c1ccc(F)cc1F [Fluconazole]
24 | > 45.8 µM | > 45.8 µM | Nc1nc(=O)[nH]cc1F [Flucytosine]
25 | > 45.8 µM | > 45.8 µM | Nc1nc(F)nc2c1ncn2[C@@H]1O[C@H](COP(=O)(O)O)[C@@H](O)[C@@H]1O [Fludarabine phosphate]
26 | > 45.8 µM | > 45.8 µM | C[C@]12CCC(=O)C=C1CC[C@H]1[C@@H]3CC[C@](O)(C(=O)CO)[C@@]3(C)C[C@H](O)[C@@]12F [Fludrocortisone]
27 | > 45.8 µM | > 45.8 µM | O=C(O)c1ccccc1Nc1cccc(C(F)(F)F)c1 [Flufenamic acid]
28 | > 45.8 µM | > 45.8 µM | CCOC(=O)c1ncn2c1CN(C)C(=O)c1cc(F)ccc1-2 [Flumazenil]
29 | > 45.8 µM | > 45.8 µM | CC(=O)OCC(=O)[C@@]1(O)[C@H](C)C[C@H]2[C@@H]3C[C@H](F)C4=CC(=O)C=C[C@]4(C)[C@@]3(F)[C@@H](O)C[C@@]21C [Flumethasone acetate]
30 | > 45.8 µM | > 45.8 µM | C[C@@H]1C[C@H]2[C@@H]3C[C@H](F)C4=CC(=O)C=C[C@]4(C)[C@@]3(F)[C@@H](O)C[C@]2(C)[C@@]1(O)C(=O)COC(=O)C(C)(C)C [Flumethasone pivalate]
31 | > 45.8 µM | > 45.8 µM | C[C@@H]1C[C@H]2[C@@H]3C[C@H](F)C4=CC(=O)C=C[C@]4(C)[C@@]3(F)[C@@H](O)C[C@]2(C)[C@@]1(O)C(=O)CO [Flumethasone]
32 | > 45.8 µM | > 45.8 µM | CC1(C)O[C@@H]2C[C@H]3[C@@H]4C[C@H](F)C5=CC(=O)C=C[C@]5(C)[C@H]4[C@@H](O)C[C@]3(C)[C@]2(C(=O)CO)O1 [Flunisolide]
33 | > 45.8 µM | > 45.8 µM | Cc1c(Nc2ncccc2C(=O)O)cccc1C(F)(F)F [Flunixin meglumine]
34 | > 45.8 µM | > 45.8 µM | CC1(C)O[C@@H]2C[C@H]3[C@@H]4C[C@H](F)C5=CC(=O)C=C[C@]5(C)[C@@]4(F)[C@@H](O)C[C@]3(C)[C@]2(C(=O)CO)O1 [Fluocinolone acetonide]
35 | > 45.8 µM | > 45.8 µM | CC(=O)OCC(=O)[C@@]12OC(C)(C)O[C@@H]1C[C@H]1[C@@H]3C[C@H](F)C4=CC(=O)C=C[C@]4(C)[C@@]3(F)[C@@H](O)C[C@@]12C [Fluocinonide]
36 | > 45.8 µM | > 45.8 µM | O=C(O)c1ccccc1-c1c2ccc(=O)cc-2oc2cc(O)ccc12 [Fluorescein sodium]
37 | > 45.8 µM | > 45.8 µM | CC(=O)O[C@]1(C(C)=O)CC[C@H]2[C@@H]3C[C@H](C)C4=CC(=O)C=C[C@]4(C)[C@@]3(F)[C@@H](O)C[C@@]21C [Fluorometholone Acetate]
38 | > 45.8 µM | > 45.8 µM | CC(=O)[C@@]1(O)CC[C@H]2[C@@H]3C[C@H](C)C4=CC(=O)C=C[C@]4(C)[C@@]3(F)[C@@H](O)C[C@@]21C [Fluorometholone]

Row | SMILES | IC50 cell viability (ICRF193 0 nM) | IC50 cell viability (ICRF193 200 nM)
39 | COP(=S)(OC)Oc1cc(Cl)c(Cl)cc1Cl [Fenchlorphos] | > 45.8 µM | > 45.8 µM
40 | CC(Cc1ccc(O)cc1)NCC(O)c1cc(O)cc(O)c1 (centres undefined) [Fenoterol hydrobromide] | > 45.8 µM | > 45.8 µM
41 | COP(=S)(OC)Oc1ccc(SC)c(C)c1 [Fenthion] | > 45.8 µM | > 45.8 µM
42 | N#Cc1nn(-c2c(Cl)cc(C(F)(F)F)cc2Cl)c(N)c1[S+]([O-])C(F)(F)F (centres undefined) [Fipronil] | > 45.8 µM | > 45.8 µM
